Experimental data reported in US20240115554A1, “METHODS FOR TREATING OBSTRUCTIVE HYPERTROPHIC CARDIOMYOPATHY” (Cytokinetics, Incorporated, priority 2022, published 2024).
“And” between values parts separate entries of the source, which are not always exact repeats. Identical values can stand only once. “Also recorded” adds a separate entry of the source.

Columns and labels:
healthy adults = experiment: Phase 1 echocardiography pharmacodynamics (LVEF); format: in vivo, human
Description: Echocardiography. For PD assessments of LVEF, echocardiograms for the SAD and MAD cohorts were interpreted by the echocardiography core laboratory and used for all data analysis and dose level review decisions while immediate local interpretation of the echocardiograms was performed for safety monitoring. […] Echocardiograms on day 3 (48 h after dosing) were obtained only if the 24 h LVEF had not returned to near or above baseline, as determined by the investigator. In the MAD cohorts, echocardiograms were obtained on day −1, pre-dose on day 1, and at 1.5 h post dose on days 2, 4, and 9, and at 1.5, 24, and 72 h post dose on day 14 (for the 5-mg and 10-mg cohorts) or on day 17 (for the 7.5-mg cohort). Echocardiograms were obtained 3 days after the last dose (on day 17 or 20) only if the participant's prior LVEF was not near or above baseline, as determined by the investigator. […] Descriptive statistics of the echocardiographic parameters were generated using SAS® Version 9.3 or higher. Dose-response analysis was performed using analysis of covariance (ANCOVA) to identify the least-squares mean difference (aficamten minus placebo). To analyze the impact of drug dose on echocardiographic parameters in the SAD and MAD cohorts, an inferential analysis was conducted on the PD analysis set using linear mixed models for repeated-measures analysis of covariance (ANCOVA). The ANCOVA used baseline value as a covariate, included treatment, time-point, and time-point-by-treatment interaction as fixed effects, and change from baseline as the dependent variable. The unstructured variance-covariance structure was used, and the model accounted for the time-point repeated measures. The ANCOVA analysis was conducted separately for each study part and for each PD parameter. The least-squares means, the difference in least squares means (active minus placebo), and the associated 2-sided 95% CIs were presented for each comparison. Analyses of concentration ‘bin’ and exposure-response were also performed using ANCOVA. SAS® PROC MIXED was used for all comparative analyses. […] A concentration bin ANCOVA was conducted using linear mixed models for repeated-measures analyses with concentration bin group as a fixed effect, baseline PD parameters as a covariate, change from baseline as the dependent variable, and a random intercept to adjust for the repeated measures. The unstructured variance-covariance structure was used. […] The ANCOVA compared the change in PD parameters between each bin versus the pooled placebo group. The least-squares means, the difference in least squares means (bin group minus placebo), and the associated 2-sided 95% CIs were presented for each comparison. The ANCOVA analysis was conducted separately for each study part. For all time-points at which both PK data and PD measures were available, the time-points were pooled for the analysis. […] From least to greatest, the data were then divided into 5 groups of observations (‘bins’), each consisting of 20% of the data points. Each bin was treated as a separate group. […] The above analysis was then repeated using concentration as a continuous variable to estimate the exposure-response trend. Both a random intercept effect and a random concentration effect were added to the ANCOVA. The estimate of the concentration slope, with corresponding 2-sided 95% CIs, and the ANCOVA analyses were presented for each study part.

[1] = system: patients with symptomatic obstructive HCM (oHCM); experiment: Phase 2 trial: cardiac biomarkers (NT-proBNP, hs-troponin); format: in vivo, human
Description: Echocardiograms obtained every 2 weeks and 2 weeks after the last dose were analyzed for several key structural and physiologic metrics and N-terminal prohormone of brain natriuretic peptide (NT-proBNP). Secondary results from the clinical study included data from Cohort 3 (n=13). […] Overall, treatment duration for each patient in the study was 10 weeks with an echocardiogram conducted 2 weeks after the last dose. Efficacy endpoints included resting and provoked LVOT gradients, NYHA class, and NT-proBNP.

[2] = system: patients with symptomatic oHCM; experiment: Open-label extension: Kansas City Cardiomyopathy Questionnaire (KCCQ); format: in vivo, human
Description: Change in KCCQ scores from baseline, including OSS=overall summary score, CSS=clinical summary score, TSS=total symptom score, PLS=physical limitation score, SLS=social limitation score, QoL=quality of life, were determined. Patients were categorized with worsened (≤−5 points), unchanged (−5 to <5 points), small improvement (5 to <10 points), moderate to large improvement (10 to <20 points), and large to very large improvement (≥20 points) relative to baseline.

[3] = system: patients with symptomatic obstructive HCM (oHCM); experiment: Phase 2 trial: safety and tolerability
Description: Seventeen investigative sites in North America and Europe screened for patients to enroll in Cohorts 1 and 2.
The first two cohorts (Cohort 1 and Cohort 2) excluded patients receiving disopyramide. Cohort 3 included patients receiving disopyramide. […] Overall, the treatment duration was 10 weeks with a 4-week follow-up period after the last dose.

[4] = SAD 50 mg (n = 11), change from baseline at […]
[5] = Cohort 1, 21 randomized 2:1 aficamten (5, 10, 15 mg once daily) or placebo, 10 weeks
[6] = Cohort 2, 20 randomized 2:1 aficamten (10, 20, 30 mg once daily) or placebo, 10 weeks
[7] = Cohort 3, 13 patients, aficamten (5, 10, 15 mg once daily) on top of disopyramide, 10 weeks
[8] = Total, Cohorts 1-3, 54 patients

CCc1nc(-c2ccc3c(c2)CC[C@H]3NC(=O)c2cnn(C)c2)no1 [aficamten, (R)—N-(5-(5-ethyl-1,2,4-oxadiazol-3-yl)-2,3-dihydro-1H-inden-1-yl)-1-methyl-1H-pyrazole-4-carboxamide] was tested, and the “plasma aficamten concentration with minimal suppression of LVEF in most participants” value (healthy adults; MAD cohorts) was less than 180 ng/mL, the “time within which LVEF returned to baseline in participants whose LVEF fell below 50%” value (healthy adults; Phase 1) was no more than 24 h and the “E, Mean” value (healthy adults; SAD 50 mg (n = 11), […]) was 64 cm/s. For the same compound, the “A, CFB Mean” value (healthy adults; [4]) was 2.5 cm/s, the “E, CFB Mean” value (healthy adults; [4]) was -2.7 cm/s and the “Heart rate, CFB Mean” value (healthy adults; [4]) was 0.5 bpm. For the same compound, the “IVCT, CFB Mean” value (healthy adults; [4]) was 0.4 ms, the “IVRT, CFB Mean” value (healthy adults; [4]) was 0.5 ms and the “LAV, CFB Mean” value (healthy adults; [4]) was 0 mL. The “LV EDV, CFB Mean” value (healthy adults; [4]) was 6.6 mL, the “LV ESV, CFB Mean” value (healthy adults; [4]) was 8.1 mL and the “LV ET, CFB Mean” value (healthy adults; [4]) was 1.9 ms. The “LV SV, CFB Mean” value (healthy adults; [4]) was -6.2 mL, the “LVEF, CFB Mean” value (healthy adults; [4]) was −5.8% and the “e′ lateral, CFB Mean” value (healthy adults; [4]) was -1.3 cm/s. The “participants with absolute reduction in LVEF of ≥5% from baseline” value (healthy adults; SAD 1-, 10-, or 25-mg cohorts) was “no participants”, the “participants with reduction in LVEF to <50%” value (healthy adults; SAD 50-mg cohort (2 of 11)) was 18% and the “LVEF of the participants with LVEF <50%” value (healthy adults; SAD 50-mg cohort, 2 participants, core laboratory assessment) was 48.2% and 45.5%. The “mean maximum reduction in LVEF” value (healthy adults; SAD 50-mg group, […] post dose) was 5.8%, the “participants with reduction in LVEF to <50%” value (healthy adults; SAD 75-mg cohort (1 of 1)) was 100% and the “relationship of plasma concentration to change in LVEF” value (healthy adults; SAD cohorts) was “trend toward a decrease in LVEF”. The “participants with LVEF <45%” value (healthy adults; SAD cohorts, core laboratory) was “Only the participant in the 75-mg cohort experienced LVEF <45%”, the “reduction in LVEF to <50%” value (healthy adults; any of the MAD cohorts, core laboratory assessment) was “not observed” and the “decrease in mean LVEF from baseline (least-squares mean difference)” value (healthy adults; single 50-mg dose, […] post dose) was 5.5%. For the same compound, the LVEF after reduction (healthy adults; single dose of 75 mg, 1 participant, approximately […] after dosing) was 34.1%, the “reduction in LVEF” value (healthy adults; single participant, 75 mg, […] post dose) was 31.5% and the “patients with at least some reduction in NT-proBNP levels” value ([1]; 25 out of the 27 patients on aficamten) was 93%. For the same compound, the “proportional reduction in NT-proBNP levels compared to placebo” value ([1]; week 10) was 62%, the “participants with clinically-important improvement (5 points on the KCCQ Overall Summary Score)” value ([2]; Week 12) was 72.7% and the “participants with very large clinical improvements in KCCQ” value ([2]; Week 12) was 36.4%. For the same compound, the “participants with clinically-important improvement (5 points on the KCCQ Overall Summary Score)” value ([2]; Week 24) was 72.0%, the “participants with very large clinical improvements in KCCQ” value ([2]; Week 24) was 40.0% and the “improvement in KCCQ domain scores” value ([2]; up to 6 months) was “marked and sustained improvement in all KCCQ domain scores”. For the same compound, the “patients with LVEF <50%” value ([3]; Cohort 1) was “No patients”, the “Patients with TEAEs leading to drug interruption or termination” value (“Patients with TEAEs leading” below) [3, 5] was 0 N and the “Patients with fatal TEAEs” value [3, 5] was 0 N. For the same compound, the “TEAE of LVEF <50% (Core Lab)” value [3, 5] was 0 N, the “patients with transient LVEF reduction to <50% requiring down titration” value ([3]; Cohort 2, 20 mg) was “one patient” and the “Patients with TEAEs leading” value [3, 6] was 0 N. The “Patients with TESAEs” value [3, 6] was 0 N, the “Patients with fatal TEAEs” value [3, 6] was 0 N and the “changes in QTc interval or vital signs” value ([3]; Cohort 3) was “no significant changes in QTc interval, or vital signs”. For the same compound, the “moderate adverse events recorded” value ([3]; Cohort 3) was “six”, the “patients with LVEF <50%” value ([3]; Cohort 3) was “No patients experienced LVEF <50%” and the “serious adverse events, dose interruptions, discontinuations” value ([3]; Cohort 3) was “no serious adverse events attributed to treatment; also recorded: no dose interruptions, treatment discontinuations, or serious adverse events”. The “Patients with TEAEs leading” value [3, 7] was 0 N, the “Patients with TESAEs” value [3, 7] was 0 N and the “Patients with fatal TEAEs” value [3, 7] was 0 N. The “TEAE of LVEF <50% (Core Lab)” value [3, 7] was 0 N, the “adverse event of asymptomatic atrial fibrillation” value ([3]; Cohort 3, patient with known prior history) was “One” and the “interruptions or discontinuations of treatment” value ([3]; Cohorts 1 and 2) was “no treatment interruptions; also recorded: No interruptions or discontinuations”. For the same compound, the “new cases of atrial fibrillation” value ([3]; Cohorts 1 and 2) was “No new cases of atrial fibrillation”, the “severity of adverse events” value ([3]; Cohorts 1 and 2) was “mild or moderate” and the “treatment related serious adverse events” value ([3]; Cohorts 1 and 2) was “No serious adverse events were attributed to aficamten; also recorded: no treatment related serious adverse events”. The “reversibility of LVEF effect after end of treatment” value ([3]; Phase 2 cohorts) was “returned towards baseline within two weeks after the end of treatment; also recorded: returned to baseline after the 2-week washout”, the “Patients with TEAEs leading” value [3, 8] was 0 N and the “Patients with fatal TEAEs” value [3, 8] was 0 N.
